Measurements taken from patent publication US9102638B2, “Amidobenzothiazoles and process for the preparation thereof” (COUNCIL OF SCIENTIFIC & INDUSTRIAL RESEARCH, priority 2011, dated 2015).

Experiments:
Format in all cases: cell-based
MCF7 = assay: In vitro cytotoxicity, NCI screen: MCF7 (Breast); conditions: Homo sapiens; MCF7, Breast panel, NCI protocol; read-out: GI50 values (μM conc.)
Method: (§1) The in vitro anticancer activity studies for these amidobenzothiazoles were carried out at the National Cancer Institute, Maryland, USA.
(§2) The amidobenzothiazoles have been tested against sixty human tumor cell lines derived from nine cancer types (leukemia cancer cell line, non-small cell lung cancer cell line, colon cancer cell line, CNS cancer cell line, melanoma cancer cell line, ovarian cancer cell line, renal cancer cell line, prostate cancer cell line and breast cancer cell lines). For these compounds results are expressed in GI50 values of that particular cancer cell at micro molar (μM) concentration as per NCI protocol.

IGROV1 = assay: In vitro cytotoxicity, NCI screen: IGROV1 (Ovarian); conditions: Homo sapiens, IGROV-1; IGROV1, Ovarian panel, NCI protocol; read-out: GI50 values (μM conc.)
Method: as §1, §2

UACC-257 = assay: In vitro cytotoxicity, NCI screen: UACC-257 (Melanoma); conditions: Homo sapiens; UACC-257, Melanoma panel, NCI protocol; read-out: GI50 values (μM conc.)
Method: as §1, §2

COLO-205 = assay: In vitro cytotoxicity, NCI screen: COLO-205 (Colon); conditions: Homo sapiens; COLO-205, Colon panel, NCI protocol; read-out: GI50 values (μM conc.)
Method: as §1, §2

A549/ATCC = assay: In vitro cytotoxicity, NCI screen: A549/ATCC (Non-small cell lung); conditions: Homo sapiens, Non-small cell lung panel, NCI protocol, read-out: GI50 values (μM conc.)
Method: as §1, §2

SN12C = assay: In vitro cytotoxicity, NCI screen: SN12C (Renal); conditions: Homo sapiens, Renal panel, NCI protocol, read-out: GI50 values (μM conc.)
Method: as §1, §2

SR = assay: In vitro cytotoxicity, NCI screen: SR (Leukemia); conditions: Homo sapiens, Leukemia panel, NCI protocol, read-out: GI50 values (μM conc.)
Method: as §1, §2

MDA-MB-231/ATCC = assay: In vitro cytotoxicity, NCI screen: MDA-MB-231/ATCC (Breast); conditions: Homo sapiens, Breast panel, NCI protocol, read-out: GI50 values (μM conc.)
Method: as §1, §2

UACC-62 = assay: In vitro cytotoxicity, NCI screen: UACC-62 (Melanoma); conditions: Homo sapiens; UACC-62, Melanoma panel, NCI protocol; read-out: GI50 values (μM conc.)
Method: as §1, §2

A498 = assay: In vitro cytotoxicity, NCI screen: A498 (Renal); conditions: Homo sapiens; A498, Renal panel, NCI protocol; read-out: GI50 values (μM conc.)
Method: as §1, §2

M14 = assay: In vitro cytotoxicity, NCI screen: M14 (Melanoma); conditions: Homo sapiens; M14, Melanoma panel, NCI protocol; read-out: GI50 values (μM conc.)
Method: as §1, §2

[1] = test system: prostate cancer cell lines; assay: In vitro activity against prostate cancer cell lines (panel range); conditions: Homo sapiens, read-out: GI50 values, range over the listed compounds and the panel
Method: as §1, §2

ACHN = assay: In vitro cytotoxicity, NCI screen: ACHN (Renal); conditions: Homo sapiens, Renal panel, NCI protocol, read-out: GI50 values (μM conc.)
Method: as §1, §2

SF-295 = assay: In vitro cytotoxicity, NCI screen: SF-295 (CNS); conditions: Homo sapiens; SF-295, CNS panel, NCI protocol; read-out: GI50 values (μM conc.)
Method: as §1, §2

RXF 393 = assay: In vitro cytotoxicity, NCI screen: RXF 393 (Renal); conditions: Homo sapiens; RXF 393, Renal panel, NCI protocol; read-out: GI50 values (μM conc.)
Method: as §1, §2

HCT-15 = assay: In vitro cytotoxicity, NCI screen: HCT-15 (Colon); conditions: Homo sapiens; HCT-15, Colon panel, NCI protocol; read-out: GI50 values (μM conc.)
Method: as §1, §2

HT29 = assay: In vitro cytotoxicity, NCI screen: HT29 (Colon); conditions: Homo sapiens, HT-29; HT29, Colon panel, NCI protocol; read-out: GI50 values (μM conc.)
Method: as §1, §2

SNB-75 = assay: In vitro cytotoxicity, NCI screen: SNB-75 (CNS); conditions: Homo sapiens; SNB-75, CNS panel, NCI protocol; read-out: GI50 values (μM conc.)
Method: as §1, §2

786-0 = assay: In vitro cytotoxicity, NCI screen: 786-0 (Renal); conditions: Homo sapiens; 786-0, Renal panel, NCI protocol; read-out: GI50 values (μM conc.)
Method: as §1, §2

SF-539 = assay: In vitro cytotoxicity, NCI screen: SF-539 (CNS); conditions: Homo sapiens, read-out: GI50 values (μM conc.)
Method: as §1, §2

NCI-H23 = assay: In vitro cytotoxicity, NCI screen: NCI-H23 (Non-small cell lung); conditions: Homo sapiens; NCI-H23, Non-small cell lung panel, NCI protocol; read-out: GI50 values (μM conc.)
Method: as §1, §2

SF-268 = assay: In vitro cytotoxicity, NCI screen: SF-268 (CNS); conditions: Homo sapiens, read-out: GI50 values (μM conc.)
Method: as §1, §2

CCRF-CEM = assay: In vitro cytotoxicity, NCI sixty cell line screen: CCRF-CEM (Leukemia); conditions: Homo sapiens, Leukemia panel, NCI protocol, read-out: GI50 values (μM conc.)
Method: as §1, §2

MDA-MB-435 = assay: In vitro cytotoxicity, NCI screen: MDA-MB-435 (Melanoma); conditions: Homo sapiens; MDA-MB-435, Melanoma panel, NCI protocol; read-out: GI50 values (μM conc.)
Method: as §1, §2

K-562 = assay: In vitro cytotoxicity, NCI screen: K-562 (Leukemia); conditions: Homo sapiens, K562; read-out: GI50 values (μM conc.)
Method: as §1, §2

HOP-92 = assay: In vitro cytotoxicity, NCI screen: HOP-92 (Non-small cell lung); conditions: Homo sapiens; HOP-92, Non-small cell lung panel, NCI protocol; read-out: GI50 values (μM conc.)
Method: as §1, §2

MALME-3M = assay: In vitro cytotoxicity, NCI screen: MALME-3M (Melanoma); conditions: Homo sapiens, Melanoma panel, NCI protocol, read-out: GI50 values (μM conc.)
Method: as §1, §2

MOLT-4 = assay: In vitro cytotoxicity, NCI screen: MOLT-4 (Leukemia); conditions: Homo sapiens; MOLT-4, Leukemia panel, NCI protocol; read-out: GI50 values (μM conc.)
Method: as §1, §2

[2] = test system: leukemia cancer cell lines; assay: In vitro activity against leukemia cancer cell lines (panel range); conditions: Homo sapiens, read-out: GI50 values, range over the listed compounds and the panel
Method: as §1, §2

RPMI-8226 = assay: In vitro cytotoxicity, NCI screen: RPMI-8226 (Leukemia); conditions: Homo sapiens; RPMI-8226, Leukemia panel, NCI protocol; read-out: GI50 values (μM conc.)
Method: as §1, §2

NCI-H322M = assay: In vitro cytotoxicity, NCI screen: NCI-H322M (Non-small cell lung); conditions: Homo sapiens, Non-small cell lung panel, NCI protocol, read-out: GI50 values (μM conc.)
Method: as §1, §2

SW-620 = assay: In vitro cytotoxicity, NCI screen: SW-620 (Colon); conditions: Homo sapiens; SW-620, Colon panel, NCI protocol; read-out: GI50 values (μM conc.)
Method: as §1, §2

OVCAR-5 = assay: In vitro cytotoxicity, NCI screen: OVCAR-5 (Ovarian); conditions: Homo sapiens; OVCAR-5, Ovarian panel, NCI protocol; read-out: GI50 values (μM conc.)
Method: as §1, §2

Row | Structure (SMILES) | GI50 (MCF7) | GI50 (IGROV1) | GI50 (UACC-257) | GI50 (COLO-205) | GI50 (A549/ATCC) | GI50 (SN12C) | GI50 (MDA-MB-231/ATCC) | GI50 (A498) | GI50 [1] | GI50 (ACHN) | GI50 (SF-295) | GI50 (RXF 393) | GI50 (HCT-15) | GI50 (SNB-75) | GI50 (786-0) | GI50 (SF-539) | GI50 (NCI-H23) | GI50 (SF-268) | GI50 (MDA-MB-435) | GI50 (HOP-92) | also measured
1 | COc1ccc(/C=C\c2cc(OC)c(OC)c(OC)c2)cc1OCC(=O)Nc1nc2ccccc2s1 [Compound 8a, N1-(1,3-benzothiazol-2-yl)-2-{2-methoxy-5-[(Z)-2-(3,4,5-trimethoxyphenyl)-1-ethenyl]phenoxy}acetamide] | 0.051 µM | 0.21 µM | 11 µM | 2.83 µM | 0.34 µM | 0.37 µM | 0.19 µM | 0.36 µM | 0.18 to 22.9 µM | 0.093 µM | 0.22 µM | 0.05 µM | 0.048 µM | 0.046 µM | 7.3 µM | 0.045 µM | 0.11 µM | 0.18 µM | 0.019 µM | 0.039 µM | GI50 (SR): 0.037 µM; GI50 (UACC-62): 0.063 µM; GI50 (M14): 0.072 µM; GI50 (HT29): 3.16 µM; GI50 (CCRF-CEM): 0.078 µM; GI50 (K-562): 0.042 µM; GI50 (MALME-3M): 1.99 µM; GI50 (MOLT-4): 0.34 µM; GI50 [2]: 0.037 to 29.9 µM; GI50 (RPMI-8226): 0.15 µM
2 | COc1ccc(/C=C\c2cc(OC)c(OC)c(OC)c2)cc1OCC(=O)Nc1nc2ccc(F)cc2s1 [Compound 8e, N1-(6-fluoro-1,3-benzothiazol-2-yl)-2-{2-methoxy-5-[(Z)-2-(3,4,5-trimethoxyphenyl)-1-ethenyl]phenoxy}acetamide] | 2.3 µM | 4.17 µM | 8.69 µM | 7.78 µM | 5.99 µM | 4.61 µM | 9.34 µM | 6.25 µM | 0.18 to 22.9 µM | 3.33 µM | 4.29 µM | 6.29 µM | 8.19 µM | 4.39 µM | 7.12 µM | 4.51 µM | 4.26 µM | 7.23 µM | 0.33 µM | 5.73 µM | GI50 (NCI-H322M): > 100 µM; GI50 (SW-620): 65 µM; GI50 (SR): 2.19 µM; GI50 (UACC-62): 4.05 µM; GI50 (OVCAR-5): > 100 µM; GI50 (M14): 6.82 µM; GI50 (HT29): 9.63 µM; GI50 (CCRF-CEM): 3.7 µM; GI50 (K-562): 3.62 µM; GI50 (MALME-3M): 5.22 µM; GI50 (MOLT-4): 3.07 µM; GI50 [2]: 0.037 to 29.9 µM; GI50 (RPMI-8226): 6.36 µM
3 | COc1ccc2nc(NC(=O)COc3cc(/C=C\c4cc(OC)c(OC)c(OC)c4)ccc3OC)sc2c1 [Compound 8g, N1-(6-methoxy-1,3-benzothiazol-2-yl)-2-{2-methoxy-5-[(Z)-2-(3,4,5-trimethoxyphenyl)-1-ethenyl]phenoxy}acetamide] | 2.88 µM | 7 µM | 63 µM | 3.89 µM | 5.19 µM | 5.75 µM | 5.4 µM | 3.5 µM | 0.18 to 22.9 µM | 7.77 µM | 1.84 µM | 2.5 µM | 2.89 µM | 1.91 µM | 7.52 µM | 2.84 µM | 3.91 µM | 4.31 µM | 1.16 µM | 6.28 µM | GI50 (NCI-H322M): > 100 µM; GI50 (SW-620): 5.1 µM; GI50 (SR): 3.69 µM; GI50 (UACC-62): 5.93 µM; GI50 (OVCAR-5): 5.89 µM; GI50 (M14): 4.33 µM; GI50 (HT29): 3.34 µM; GI50 (CCRF-CEM): 3.87 µM; GI50 (K-562): 3.6 µM; GI50 (MALME-3M): > 100 µM; GI50 (MOLT-4): 3.87 µM; GI50 [2]: 0.037 to 29.9 µM; GI50 (RPMI-8226): 5.43 µM
4 | COc1ccc(/C=C\c2cc(OC)c(OC)c(OC)c2)cc1OCC(=O)Nc1nc2ccc(OC(F)(F)F)cc2s1 [Compound 8j, N1-(6-(trifluoromethoxy)-1,3-benzothiazol-2-yl)-2-{2-methoxy-5-[(Z)-2-(3,4,5-trimethoxyphenyl)-1-ethenyl]phenoxy}acetamide] | 2.89 µM | 5.64 µM | 89.2 µM | 43.3 µM | 6 µM | 6.42 µM | 5.16 µM | 3.61 µM | 0.18 to 22.9 µM | 8.31 µM | 3.7 µM | 2.65 µM | 3.23 µM | 1.56 µM | 54.3 µM | 2.28 µM | 4.39 µM | 6.01 µM | 1.93 µM | 2.74 µM | GI50 (NCI-H322M): > 100 µM; GI50 (SW-620): 5.65 µM; GI50 (SR): 3.55 µM; GI50 (UACC-62): 5.11 µM; GI50 (OVCAR-5): 3.12 µM; GI50 (M14): 4.36 µM; GI50 (HT29): > 100 µM; GI50 (CCRF-CEM): 4.12 µM; GI50 (K-562): 3.43 µM; GI50 (MOLT-4): 4.21 µM; GI50 [2]: 0.037 to 29.9 µM; GI50 (RPMI-8226): 5.83 µM
5 | COc1ccc(C2CC(c3cc(OC)c(OC)c(OC)c3)=NN2C(C)=O)cc1OCC(=O)Nc1nc2ccc(C(F)(F)F)cc2s1 (stereo not shown) [Compound 10i, N1-(6-(trifluoromethyl)-1,3-benzothiazol-2-yl)-2-{5-[1-acetyl-3-(3,4,5-trimethoxyphenyl)-4,5-dihydro-1H-5-pyrazolyl]-2-methoxyphenoxy}acetamide] | 4.02 µM | 5.3 µM | 3.77 µM | 3.94 µM | 2.16 µM | 3.31 µM | 3.11 µM | 2.78 µM | 0.18 to 22.9 µM | 2.48 µM | 3.06 µM | 2.09 µM | 9.26 µM | 1.55 µM | 3.58 µM | 1.75 µM | 3.76 µM | 3.84 µM | 3.08 µM | 1.7 µM | GI50 (NCI-H322M): 3.67 µM; GI50 (SW-620): > 100 µM; GI50 (OVCAR-5): 28.2 µM; GI50 (MALME-3M): 6.44 µM; GI50 [2]: 0.037 to 29.9 µM; GI50 (RPMI-8226): 2.21 µM
